Assay results taken from the supplement of paper PMC10307832.

compound: Cc1nc(C(=O)NCC(=O)O)c(O)c2ccc(Oc3ccccc3)cc12 [FG-4592] + C[C@]1(O)C[C@@H](c2nc(-c3ccc4ccc(-c5ccccc5)nc4c3)c3c(N)nccn32)C1 [Linsitinib] (partner 1 µM); experiment: relative viability (nuclei count vs DMSO), 5 days (fraction); higher = more cells survive; settings: first compound 8 µM
In short: (§1)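 Nuclei were stained with Hoechst during a one-step fixation (final 0.05% Triton X-100, 1% formaldehyde, 1 ug/ml Hoechst) carried out 5 days after dosing, then counted on 4× images. The cells, lung cancer lines in 1536-well plates, had been dosed by pin tool the day after seeding with one drug alone or a fixed anchor-drug dose plus five library-drug doses (not always all listed) in √10 steps. Relative viability is the nuclei count in treated wells divided by that in vehicle wells, and each value is the median of duplicate plates.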

Cell Line PC-3 [JPC-3] has a relative viability of 1.01.

compound: CC1=CC(=C(N1C2=CC=C(C=C2)Cl)C)C(=O)CN3CCCCC3 [IU1-47] + Cc1nc(NC(=O)N2CCC[C@H]2C(N)=O)sc1-c1ccnc(C(C)(C)C(F)(F)F)c1 [Alpelisib] (partner 2 µM); experiment: as above; settings: first compound 0.08 µM
In short: as §1

Going from LXF-289 to NCI-H23, the relative viability falls from 1.06 to 0.703.

Going from NCI-H647 to CAL-12T, the relative viability rises from 1.18 to 1.31.

Going from NCI-H1651 to EPLC-272H, the relative viability falls from 1.05 to 0.888.

Going from NCI-H2228 to NCI-H1792, the relative viability falls from 0.904 to 0.824.

First: NCI-H1355
Second: NCI-H3122
The relative viability of the first is higher: 0.89 for the first, 0.82 for the second.

Compared with NCI-H1437, NCI-H1755 is lower in relative viability: 1.13 for the first, 1.04 for the second.

Going from NCI-H2023 to HCC-15, the relative viability rises from 0.6 to 0.99.

Going from NCI-H1793 to PC-14, the relative viability rises from 0.83 to 1.03.

Compared with EKVX, LC-2-ad is lower in relative viability: 1.21 for the first, 0.897 for the second.

Compared with NCI-H1944, NCI-H1975 is lower in relative viability: 0.853 for the first, 0.684 for the second.

First: RERF-LC-KJ
Second: NCI-H358
The relative viability of the first is lower: 0.785 for the first, 0.917 for the second.

First: NCI-H650
Second: PC-3 [JPC-3]
The relative viability of the first is higher: 1.28 for the first, 1.08 for the second.

same assay, conditions: first compound 0.253 µM

First: LXF-289
Second: NCI-H23
The relative viability of the first is higher: 1.09 for the first, 0.881 for the second.

First: NCI-H647
Second: CAL-12T
The relative viability of the first is lower: 1.21 for the first, 1.39 for the second.

Compared with NCI-H1651, EPLC-272H is lower in relative viability: 1.1 for the first, 0.834 for the second.

Compared with NCI-H2228, NCI-H1792 is lower in relative viability: 1.06 for the first, 0.708 for the second.

Going from NCI-H1355 to NCI-H3122, the relative viability rises from 0.948 to 1.02.

Compared with NCI-H1437, NCI-H1755 is higher in relative viability: 0.967 for the first, 1.03 for the second.

Compared with NCI-H2023, HCC-15 is higher in relative viability: 0.531 for the first, 0.926 for the second.

Going from NCI-H1793 to PC-14, the relative viability rises from 0.683 to 0.987.

Going from EKVX to LC-2-ad, the relative viability falls from 1.08 to 0.951.

Going from NCI-H1944 to NCI-H1975, the relative viability falls from 0.886 to 0.619.

First: RERF-LC-KJ
Second: NCI-H358
The relative viability of the first is higher: 0.946 for the first, 0.877 for the second.

Compared with NCI-H650, PC-3 [JPC-3] is lower in relative viability: 1.14 for the first, 0.982 for the second.

same assay, conditions: first compound 0.8 µM

Going from LXF-289 to NCI-H23, the relative viability falls from 1.12 to 0.723.

First: NCI-H647
Second: CAL-12T
The relative viability of the first is lower: 1.19 for the first, 1.47 for the second.

First: NCI-H1651
Second: EPLC-272H
The relative viability of the first is higher: 0.899 for the first, 0.859 for the second.

First: NCI-H2228
Second: NCI-H1792
The relative viability of the first is higher: 0.687 for the first, 0.647 for the second.

Going from NCI-H1355 to NCI-H3122, the relative viability rises from 0.894 to 0.97.

Compared with NCI-H1437, NCI-H1755 is higher in relative viability: 0.921 for the first, 1.03 for the second.

First: NCI-H2023
Second: HCC-15
The relative viability of the first is lower: 0.511 for the first, 0.978 for the second.

Compared with NCI-H1793, PC-14 is higher in relative viability: 0.901 for the first, 1.12 for the second.

Going from EKVX to LC-2-ad, the relative viability falls from 1.04 to 0.919.

Compared with NCI-H1944, NCI-H1975 is lower in relative viability: 0.903 for the first, 0.708 for the second.

First: RERF-LC-KJ
Second: NCI-H358
The relative viability of the first is lower: 0.775 for the first, 0.91 for the second.

Compared with NCI-H650, PC-3 [JPC-3] is lower in relative viability: 1.2 for the first, 1.04 for the second.

same assay, conditions: first compound 2.53 µM

Going from LXF-289 to NCI-H23, the relative viability falls from 1.06 to 0.777.

Going from NCI-H647 to CAL-12T, the relative viability rises from 1.07 to 1.18.

Going from NCI-H2228 to NCI-H1792, the relative viability falls from 0.796 to 0.444.

First: NCI-H1355
Second: NCI-H3122
The relative viability of the first is lower: 0.797 for the first, 0.967 for the second.

Going from NCI-H1437 to NCI-H1755, the relative viability falls from 1.05 to 0.978.

Going from NCI-H2023 to HCC-15, the relative viability rises from 0.627 to 0.825.

Going from PC-14 to EKVX, the relative viability rises from 1.02 to 1.12.

Compared with LC-2-ad, NCI-H1975 is lower in relative viability: 0.973 for the first, 0.659 for the second.

First: RERF-LC-KJ
Second: NCI-H650
The relative viability of the first is lower: 0.869 for the first, 1.09 for the second.

same assay, conditions: first compound 8 µM

Going from LXF-289 to NCI-H23, the relative viability falls from 1.05 to 0.824.

Compared with NCI-H647, CAL-12T is higher in relative viability: 0.383 for the first, 0.823 for the second.

First: NCI-H1651
Second: EPLC-272H
The relative viability of the first is lower: 0.597 for the first, 0.953 for the second.

First: NCI-H2228
Second: NCI-H1792
The relative viability of the first is lower: 0.451 for the first, 0.55 for the second.

First: NCI-H1355
Second: NCI-H3122
The relative viability of the first is higher: 0.79 for the first, 0.724 for the second.

First: NCI-H1437
Second: NCI-H1755
The relative viability of the first is lower: 0.718 for the first, 0.8 for the second.

Going from NCI-H2023 to HCC-15, the relative viability rises from 0.519 to 0.82.

Compared with NCI-H1793, PC-14 is higher in relative viability: 0.665 for the first, 0.782 for the second.

Compared with EKVX, LC-2-ad is higher in relative viability: 0.741 for the first, 0.767 for the second.

Going from NCI-H1944 to NCI-H1975, the relative viability falls from 0.847 to 0.444.

Compared with RERF-LC-KJ, NCI-H358 is lower in relative viability: 0.76 for the first, 0.682 for the second.

NCI-H650 and PC-3 [JPC-3] are the same in relative viability: 1.01 for the first, 1.01 for the second.

compound: Cc1nc(C(=O)NCC(=O)O)c(O)c2ccc(Oc3ccccc3)cc12 [FG-4592] + CCNC(=O)c1noc(-c2cc(C(C)C)c(O)cc2O)c1-c1ccc(CN2CCOCC2)cc1 [Luminespib] (partner 0.01 µM); experiment: as above; settings: first compound 0.08 µM
In short: as §1

LXF-289 was tested, and the relative viability was 0.65.
